Source: the NIST ThermoML archive (doi:10.1016/j.jct.2004.12.008)
Numbers after ± are expanded uncertainties.

Assay: xn = mol fraction of the nth substance listed
Details: 101 kPa, Liquid

`O=[N+]([O-])c1ccccc1` [nitrobenzene] + Cc1cccc(C)c1 showed a mass density (293.15 K, x2 = 0) of 1202.95 ± 2.3 kg/m3, a mass density (293.15 K, x2 = 0.0549) of 1181.56 ± 2.1 kg/m3 and a mass density (293.15 K, x2 = 0.1248) of 1154.92 ± 1.9 kg/m3. For the same compound, the mass density (293.15 K, x2 = 0.1832) was 1133.14 ± 1.8 kg/m3, the mass density (293.15 K, x2 = 0.2489) was 1109.13 ± 1.7 kg/m3 and the mass density (293.15 K, x2 = 0.3134) was 1086.03 ± 1.5 kg/m3. It also gave a mass density (293.15 K, x2 = 0.3681) of 1066.8 ± 1.4 kg/m3, a mass density (293.15 K, x2 = 0.4234) of 1047.66 ± 1.3 kg/m3 and a mass density (293.15 K, x2 = 0.4892) of 1025.28 ± 1.2 kg/m3. The mass density (293.15 K, x2 = 0.5321) was 1010.91 ± 1.1 kg/m3, the mass density (293.15 K, x2 = 0.6013) was 988.09 ± 1.2 kg/m3 and the mass density (293.15 K, x2 = 0.6539) was 971.01 ± 1.3 kg/m3. The mass density (293.15 K, x2 = 0.7242) was 948.56 ± 1.6 kg/m3, the mass density (293.15 K, x2 = 0.7811) was 930.68 ± 1.8 kg/m3 and the mass density (293.15 K, x2 = 0.8631) was 905.36 ± 2.1 kg/m3. For the same compound, the mass density (293.15 K, x2 = 0.9321) was 884.44 ± 2.3 kg/m3, the mass density (303.15 K, x2 = 0) was 1193.56 ± 2.2 kg/m3 and the mass density (303.15 K, x2 = 0.0478) was 1174.85 ± 2.1 kg/m3. The mass density (303.15 K, x2 = 0.1132) was 1149.78 ± 1.9 kg/m3, the mass density (303.15 K, x2 = 0.1812) was 1124.32 ± 1.7 kg/m3 and the mass density (303.15 K, x2 = 0.2343) was 1104.85 ± 1.6 kg/m3. It also gave a mass density (303.15 K, x2 = 0.2943) of 1083.27 ± 1.5 kg/m3, a mass density (303.15 K, x2 = 0.3535) of 1062.36 ± 1.4 kg/m3 and a mass density (303.15 K, x2 = 0.4143) of 1041.29 ± 1.2 kg/m3. The mass density (303.15 K, x2 = 0.4711) was 1021.95 ± 1.1 kg/m3, the mass density (303.15 K, x2 = 0.5243) was 1004.13 ± 1 kg/m3 and the mass density (303.15 K, x2 = 0.6123) was 975.24 ± 1.3 kg/m3. The mass density (303.15 K, x2 = 0.6811) was 953.14 ± 1.5 kg/m3, the mass density (303.15 K, x2 = 0.7423) was 933.82 ± 1.7 kg/m3 and the mass density (303.15 K, x2 = 0.8132) was 911.82 ± 1.9 kg/m3. For the same compound, the mass density (303.15 K, x2 = 0.8834) was 890.44 ± 2.2 kg/m3, the mass density (303.15 K, x2 = 0.9432) was 872.53 ± 2.4 kg/m3 and the mass density (313.15 K, x2 = 0) was 1183.37 ± 2.1 kg/m3. The mass density (313.15 K, x2 = 0.0723) was 1155.17 ± 1.9 kg/m3, the mass density (313.15 K, x2 = 0.1289) was 1133.64 ± 1.8 kg/m3 and the mass density (313.15 K, x2 = 0.1732) was 1117.09 ± 1.7 kg/m3. It also gave a mass density (313.15 K, x2 = 0.2212) of 1099.45 ± 1.6 kg/m3, a mass density (313.15 K, x2 = 0.2811) of 1077.85 ± 1.4 kg/m3 and a mass density (313.15 K, x2 = 0.3635) of 1048.82 ± 1.2 kg/m3. For the same compound, the mass density (313.15 K, x2 = 0.4244) was 1027.87 ± 1.1 kg/m3, the mass density (313.15 K, x2 = 0.4823) was 1008.31 ± 1 kg/m3 and the mass density (313.15 K, x2 = 0.5423) was 988.4 ± 1.1 kg/m3. It also gave a mass density (313.15 K, x2 = 0.6131) of 965.35 ± 1.3 kg/m3, a mass density (313.15 K, x2 = 0.6732) of 946.15 ± 1.5 kg/m3 and a mass density (313.15 K, x2 = 0.749) of 922.4 ± 1.8 kg/m3. It also gave a mass density (313.15 K, x2 = 0.8313) of 897.16 ± 2.1 kg/m3, a mass density (313.15 K, x2 = 0.8724) of 884.76 ± 2.2 kg/m3 and a mass density (313.15 K, x2 = 0.9331) of 866.7 ± 2.4 kg/m3. It also gave a mass density (323.15 K, x2 = 0) of 1172.38 ± 2 kg/m3, a mass density (323.15 K, x2 = 0.0698) of 1145.18 ± 1.9 kg/m3 and a mass density (323.15 K, x2 = 0.1321) of 1121.54 ± 1.7 kg/m3. The mass density (323.15 K, x2 = 0.1832) was 1102.55 ± 1.6 kg/m3, the mass density (323.15 K, x2 = 0.2576) was 1075.53 ± 1.4 kg/m3 and the mass density (323.15 K, x2 = 0.3139) was 1055.55 ± 1.3 kg/m3. For the same compound, the mass density (323.15 K, x2 = 0.3781) was 1033.23 ± 1.1 kg/m3, the mass density (323.15 K, x2 = 0.4527) was 1007.89 ± 0.98 kg/m3 and the mass density (323.15 K, x2 = 0.5198) was 985.6 ± 1.1 kg/m3. It also gave a mass density (323.15 K, x2 = 0.5631) of 971.45 ± 1.2 kg/m3, a mass density (323.15 K, x2 = 0.6398) of 946.86 ± 1.5 kg/m3 and a mass density (323.15 K, x2 = 0.7043) of 926.6 ± 1.7 kg/m3. It also gave a mass density (323.15 K, x2 = 0.7731) of 905.4 ± 1.9 kg/m3, a mass density (323.15 K, x2 = 0.8343) of 886.88 ± 2.1 kg/m3 and a mass density (323.15 K, x2 = 0.8623) of 878.51 ± 2.2 kg/m3. For the same compound, the mass density (323.15 K, x2 = 0.9423) was 854.95 ± 2.5 kg/m3, the mass density (333.15 K, x2 = 0) was 1160.59 ± 1.9 kg/m3 and the mass density (333.15 K, x2 = 0.0499) was 1141.14 ± 1.8 kg/m3. For the same compound, the mass density (333.15 K, x2 = 0.1244) was 1112.83 ± 1.6 kg/m3, the mass density (333.15 K, x2 = 0.1674) was 1096.86 ± 1.5 kg/m3 and the mass density (333.15 K, x2 = 0.234) was 1072.65 ± 1.3 kg/m3. It also gave a mass density (333.15 K, x2 = 0.3089) of 1046.1 ± 1.2 kg/m3, a mass density (333.15 K, x2 = 0.3598) of 1028.47 ± 1.1 kg/m3 and a mass density (333.15 K, x2 = 0.4242) of 1006.59 ± 0.95 kg/m3. For the same compound, the mass density (333.15 K, x2 = 0.4972) was 982.35 ± 1.1 kg/m3, the mass density (333.15 K, x2 = 0.5672) was 959.63 ± 1.3 kg/m3 and the mass density (333.15 K, x2 = 0.6319) was 939.07 ± 1.5 kg/m3. For the same compound, the mass density (333.15 K, x2 = 0.7133) was 913.77 ± 1.8 kg/m3, the mass density (333.15 K, x2 = 0.7632) was 898.55 ± 2 kg/m3 and the mass density (333.15 K, x2 = 0.8347) was 877.13 ± 2.2 kg/m3. For the same compound, the mass density (333.15 K, x2 = 0.8824) was 863.08 ± 2.4 kg/m3, the mass density (333.15 K, x2 = 0.9323) was 848.58 ± 2.5 kg/m3 and the mass density (343.15 K, x2 = 0) was 1148 ± 1.9 kg/m3. For the same compound, the mass density (343.15 K, x2 = 0.0598) was 1124.88 ± 1.7 kg/m3, the mass density (343.15 K, x2 = 0.1123) was 1105.06 ± 1.5 kg/m3 and the mass density (343.15 K, x2 = 0.1842) was 1078.58 ± 1.4 kg/m3. It also gave a mass density (343.15 K, x2 = 0.2542) of 1053.5 ± 1.2 kg/m3, a mass density (343.15 K, x2 = 0.3243) of 1029.04 ± 1.1 kg/m3 and a mass density (343.15 K, x2 = 0.3831) of 1008.98 ± 0.93 kg/m3. It also gave a mass density (343.15 K, x2 = 0.4425) of 989.14 ± 0.99 kg/m3, a mass density (343.15 K, x2 = 0.5131) of 966.07 ± 1.2 kg/m3 and a mass density (343.15 K, x2 = 0.5728) of 946.96 ± 1.4 kg/m3. For the same compound, the mass density (343.15 K, x2 = 0.6392) was 926.14 ± 1.6 kg/m3, the mass density (343.15 K, x2 = 0.6901) was 910.47 ± 1.8 kg/m3 and the mass density (343.15 K, x2 = 0.7532) was 891.38 ± 2 kg/m3. For the same compound, the mass density (343.15 K, x2 = 0.8242) was 870.31 ± 2.2 kg/m3, the mass density (343.15 K, x2 = 0.8731) was 856.05 ± 2.4 kg/m3 and the mass density (343.15 K, x2 = 0.9238) was 841.48 ± 2.6 kg/m3. For the same compound, the mass density (353.15 K, x2 = 0) was 1134.61 ± 1.8 kg/m3, the mass density (353.15 K, x2 = 0.0532) was 1114.19 ± 1.6 kg/m3 and the mass density (353.15 K, x2 = 0.1289) was 1085.92 ± 1.4 kg/m3. It also gave a mass density (353.15 K, x2 = 0.1984) of 1060.73 ± 1.2 kg/m3, a mass density (353.15 K, x2 = 0.2429) of 1044.96 ± 1.1 kg/m3 and a mass density (353.15 K, x2 = 0.3092) of 1021.96 ± 0.98 kg/m3. It also gave a mass density (353.15 K, x2 = 0.3711) of 1000.98 ± 0.85 kg/m3, a mass density (353.15 K, x2 = 0.4248) of 983.16 ± 1 kg/m3 and a mass density (353.15 K, x2 = 0.4891) of 962.26 ± 1.2 kg/m3. For the same compound, the mass density (353.15 K, x2 = 0.5518) was 942.3 ± 1.4 kg/m3, the mass density (353.15 K, x2 = 0.6138) was 922.97 ± 1.6 kg/m3 and the mass density (353.15 K, x2 = 0.6731) was 904.84 ± 1.8 kg/m3. For the same compound, the mass density (353.15 K, x2 = 0.7294) was 887.93 ± 2 kg/m3, the mass density (353.15 K, x2 = 0.8013) was 866.76 ± 2.2 kg/m3 and the mass density (353.15 K, x2 = 0.8673) was 847.71 ± 2.5 kg/m3. The mass density (353.15 K, x2 = 0.9451) was 825.73 ± 2.7 kg/m3.
